US20240174636A1, “NOVEL INDOLEAMINE 2,3-DIOXYGENASE INHIBITORS, PROCESSES FOR THE PREPARATION THEREOF AND PHARMACEUTICAL COMPOSITIONS COMPRISING THE SAME” (YUHAN CORPORATION, priority 2021, published 2024)

What was measured:
IDO1 [1] = biological target: T1, IDO1 (Homo sapiens, UniProt P14902); test: IDO1 cellular activity using Hela cells (IFN-gamma induced IDO expression, kynurenine absorbance at 480 nm); format: cell-based; details: IDO induced with interferon gamma 50 ng/ml, 24 h compound incubation, read-out: Inhibitory Activity (IC50)
T1 sequence (P14902 whole entry): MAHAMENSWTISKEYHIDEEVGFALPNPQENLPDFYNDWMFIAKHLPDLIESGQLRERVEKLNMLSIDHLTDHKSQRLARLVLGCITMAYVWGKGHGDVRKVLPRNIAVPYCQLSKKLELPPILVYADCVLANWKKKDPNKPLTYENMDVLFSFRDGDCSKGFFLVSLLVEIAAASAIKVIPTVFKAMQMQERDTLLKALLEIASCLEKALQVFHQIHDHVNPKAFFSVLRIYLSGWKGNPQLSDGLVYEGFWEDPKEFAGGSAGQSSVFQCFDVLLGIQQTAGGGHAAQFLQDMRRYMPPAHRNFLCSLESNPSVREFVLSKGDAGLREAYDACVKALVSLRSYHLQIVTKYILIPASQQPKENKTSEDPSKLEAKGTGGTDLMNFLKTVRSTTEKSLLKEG
Description: Hela cells were seeded at a density of 20000 cells/well in 100 μl of a culture medium (EMEM supplemented with 10% FBS, penicillin 100 U/ml, and streptomycin 100 μg/ml) in a tissue culture-treated 96 well plate. The cells were cultured in a 5% carbon dioxide incubator for 24 hours, treated with recombinant human interferon gamma at the concentration of 50 ng/ml, and then cultured for 48 hours in a 5% carbon dioxide incubator to induce IDO expression.
The activities were measured using IDO1 cellular activity-measuring substrate (IDO1 cellular activity quickDetect supplements catalog: #62000-2, BPS Bioscience). Specifically, an assay medium was prepared by diluting IDO1 assay medium substrate 1 and IDO1 assay medium supplement 2 in a culture medium at a ratio of 1:100, respectively. The test compounds were diluted to the predetermined concentrations in the fresh assay medium. After removing the culture medium using a multi-pipet, 200 μl of each assay medium containing the test material was added into the respective well, followed by incubating in a 5% carbon dioxide incubator for 24 hours. The next day, 140 μl of culture medium from each well was transferred to a new 96-well plate. 10 μl of 6.1N trichloroacetic acid was added into each well, which was then cultured in a 50° C. incubator for 30 minutes. The plate was centrifuged at 2500 rpm for 10 minutes to settle any sediment. A detection reagent solution was prepared by diluting the detection reagent (component D kit, catalog: #62000-2, BPS Bioscience) 50-fold in acetic acid. 100 μl of the supernatant taken from the centrifuged plate was transferred to a new transparent 96-well plate and then 100 μl of the detection reagent solution was added thereto. After reacting at room temperature for 10 minutes, absorbance was measured at 480 nm wavelength. For analysis of the results, the absorbance (At) of the well containing Hela cells in which IDO protein expression was induced without treatment of an inhibitor was 100%; and the absorbance (Ab) of the well containing Hela cells in which IDO protein expression was not induced was 0. The % absorbance was calculated according to the following equation: % Absorbance=(A−Ab)/(At−Ab), A=absorbance of the well treated with the test compound.
The results obtained by calculating the 50% inhibitory concentration (C50) of each compound, from the absorbance values obtained as described above, are shown in Table 1 below.

IDO1 [2] = biological target: T1, IDO1; test: IDO1 cellular activity using HEK293 cells transfected with IDO1 expression vector; format: cell-based; parameters: host or cells: HEK293 cells, transient transfection with Lipofectamine 2000; details: 24 h compound incubation, read-out: Inhibitory Activity (IC50)
Description: HEK293 cells were seeded at a density of 30000 cells/well in 100 μl of a culture medium (DMEM supplemented with 10% FBS, penicillin 100 U/ml, and streptomycin 100 μg/ml) in a tissue culture-treated 96 well plate. The cells were cultured in a 5% carbon dioxide incubator for 24 hours, transfected with the IDO1 expression vector (component A in IDO1 cell-based assay kit, catalog #72031, BPS Bioscience) using Lipofectamine 2000 (Life Technologies, #11668027), and then cultured for 24 hours in a 5% carbon dioxide incubator to express the IDO protein.
The activities were measured using a IDO1 cell-based assay kit (catalog #72031, BPS Bioscience). Specifically, an assay medium was prepared by diluting IDO1 assay medium substrate 1 and IDO1 assay medium supplement 2 in a culture medium at a ratio of 1:100, respectively. The test compounds were diluted to the predetermined concentrations in the fresh assay medium. After removing the culture medium using a multi-pipet, 200 μl of each assay medium containing the test material was added into respective well, followed by incubating in a 5% carbon dioxide incubator for 24 hours. The next day, 140 μl of culture medium from each well was transferred to a new 96-well plate. 10 μl of 6.1N trichloroacetic acid was added into each well, which was then cultured in a 50° C. incubator for 30 minutes. The plate was centrifuged at 2500 rpm for 10 minutes to settle any sediment. A detection reagent solution was prepared by diluting the detection reagent (component D in IDO1 cell-based assay kit, catalog #72031 BPS Bioscience) 50-fold in acetic acid. 100 μl of the supernatant taken from the centrifuged plate was transferred to a new transparent 96-well plate and then 100 μl of the detection reagent solution was added thereto. After reacting at room temperature for 10 minutes, absorbance was measured at 480 nm wavelength. For analysis of the results, the absorbance (At) of the well containing HEK293 cells in which IDO protein was expressed without treatment of an inhibitor was 100%; and the absorbance (Ab) of the well containing HEK293 cells in which IDO protein was not expressed was 0. The % absorbance was calculated according to the following equation: % Absorbance=(A−Ab)/(At−Ab), A=absorbance of the well treated with the test compound.

[3] = Pharmacokinetics through oral administration in normal rats; format: in vivo; details: 10 mg/5 mL/kg; for Maximum plasma concentration: suspension in 0.5% methyl cellulose containing 0.2% Tween 80
Description: The pharmacokinetics of the compounds of Examples 2, 5 and 25 and BMS-986205 (control) were measured in rats, respectively. The compounds of Examples 2, 5 and 25 and BMS-986205 (control) were each suspended in 0.5% methyl cellulose containing 0.2% Tween 80 and then orally administered to rats at a dose of 10 mg/5 mL/kg. Blood samples were collected from the rat in predetermined times. The concentration of the compound in each sample was analyzed to obtain the blood concentration profiles (FIG. 1).

SMILES	IC50 (IDO1 [1]) [µM]	IC50 (IDO1 [2]) [µM]	Area under the curve [3] [ng·h/mL]	Time to maximum plasma concentration [3] [h]	Maximum plasma concentration [3] [ng/mL]
CCOc1ccc2nc(N[C@H](C)C[C@H]3CC[C@@H](c4ccnc5ccc(F)cc54)CC3)sc2c1 [Example 19, 6-ethoxy-N-((R)-1-((cis)-4-(6-fluoroquinolin-4-yl)cyclohexyl)propan-2-yl)benzo[d]thiazol-2-amine]	0.014	0.008	–	–	–
C[C@H](C[C@H]1CC[C@H](c2ccnc3ccc(F)cc32)CC1)Nc1cc(=O)oc2cc(Br)ccc12 [Example 5, 7-bromo-4-(((R)-1-((trans)-4-(6-fluoroquinolin-4-yl)cyclohexyl)propan-2-yl)amino)-2H-chromen-2-one]	0.016	–	73460.2	4	4476.3
C[C@H](C[C@H]1CC[C@@H](c2ccnc3ccc(F)cc32)CC1)Nc1nc2ncc(Cl)cc2s1 [Example 23, 6-chloro-N-((R)-1-((cis)-4-(6-fluoroquinolin-4-yl)cyclohexyl)propan-2-yl)thiazolo[4,5-b]pyridin-2-amine]	0.027	0.0076	–	–	–
C[C@H](C[C@H]1CC[C@@H](c2ccnc3ccc(F)cc32)CC1)Nc1nc2ccc(F)cc2o1 [Example 29, 6-fluoro-N-((R)-1-((cis)-4-(6-fluoroquinolin-4-yl)cyclohexyl)propan-2-yl)benzo[d]oxazol-2-amine]	0.01	0.0099	–	–	–
C[C@H](C[C@H]1CC[C@@H](c2ccnc3ccc(F)cc32)CC1)Nc1nc2c(F)cccc2o1 [Example 28, 4-fluoro-N-((R)-1-((cis)-4-(6-fluoroquinolin-4-yl)cyclohexyl)propan-2-yl)benzo[d]oxazol-2-amine]	0.012	0.0086	–	–	–
CCOc1ccc2nc(N[C@H](CC)C[C@H]3CC[C@@H](c4ccnc5ccc(F)cc54)CC3)sc2c1 [Example 20, 6-ethoxy-N-((R)-1-((cis)-4-(6-fluoroquinolin-4-yl)cyclohexyl)butan-2-yl)benzo[d]thiazol-2-amine]	0.024	0.0143	–	–	–
C[C@H](C[C@H]1CC[C@H](c2ccnc3ccc(F)cc32)CC1)Nc1c(F)c(=O)oc2cc(Cl)ccc12 [Example 10, 7-chloro-3-fluoro-4-(((R)-1-((trans)-4-(6-fluoroquinolin-4-yl)cyclohexyl)propan-2-yl)amino)-2H-chromen-2-one]	0.0102	0.0095	–	–	–
C[C@H](C[C@H]1CC[C@@H](c2ccnc3ccc(F)cc32)CC1)Nc1nc2cccc(Cl)c2s1 [Example 18, 7-chloro-N-((R)-1-((cis)-4-(6-fluoroquinolin-4-yl)cyclohexyl)propan-2-yl)benzo[d]thiazol-2-amine]	0.0075	0.004	–	–	–
C[C@H](C[C@H]1CC[C@@H](c2ccnc3ccc(F)cc32)CC1)Nc1c(F)c(=O)oc2cc(Br)ccc12 [Example 11, 7-bromo-3-fluoro-4-(((R)-1-((cis)-4-(6-fluoroquinolin-4-yl)cyclohexyl)propan-2-yl)amino)-2H-chromen-2-one]	0.0187	0.0183	–	–	–
C[C@H](C[C@H]1CC[C@@H](c2ccnc3ccc(F)cc32)CC1)Nc1nc2ccc(Cl)cc2s1 [Example 13, 6-chloro-N-((R)-1-((cis)-4-(6-fluoroquinolin-4-yl)cyclohexyl)propan-2-yl)benzo[d]thiazol-2-amine]	0.03	0.0326	–	–	–
C[C@@H](C(=O)Nc1ccc(Cl)cc1)C1CCC(c2ccnc3ccc(F)cc23)CC1 (stereo partly shown) [BMS-986205, reference compound]	–	–	3976.7	1	656.8
COc1ccc2nc(N[C@H](C)C[C@H]3CC[C@@H](c4ccnc5ccc(F)cc54)CC3)oc2c1 [Example 26, N-((R)-1-((cis)-4-(6-fluoroquinolin-4-yl)cyclohexyl)propan-2-yl)-6-methoxybenzo[d]oxazol-2-amine]	0.015	0.0065	–	–	–
C[C@H](C[C@H]1CC[C@H](c2ccnc3ccc(F)cc32)CC1)Nc1c(F)c(=O)oc2cc(Br)ccc12 [Example 12, 7-bromo-3-fluoro-4-(((R)-1-((trans)-4-(6-fluoroquinolin-4-yl)cyclohexyl)propan-2-yl)amino)-2H-chromen-2-one]	0.0072	0.0112	–	–	–
CC[C@H](C[C@H]1CC[C@@H](c2ccnc3ccc(F)cc32)CC1)Nc1nc2ccc(Cl)cc2o1 [Example 27, 6-chloro-N-((R)-1-((cis)-4-(6-fluoroquinolin-4-yl)cyclohexyl)butan-2-yl)benzo[d]oxazol-2-amine]	0.023	0.0074	–	–	–
C[C@H](C[C@H]1CC[C@@H](c2ccnc3ccc(F)cc32)CC1)Nc1ncnc2cc(Br)ccc12 [Example 2, 7-bromo-N-((R)-1-((cis)-4-(6-fluoroquinolin-4-yl)cyclohexyl)propan-2-yl)quinazolin-4-amine]	0.0088	–	108441.1	1	18050.3
C[C@H](C[C@H]1CC[C@@H](c2ccnc3ccc(F)cc32)CC1)Nc1nc2cccnc2o1 [Example 30, N-((R)-1-((cis)-4-(6-fluoroquinolin-4-yl)cyclohexyl)propan-2-yl)oxazolo[5,4-b]pyridin-2-amine]	0.0235	0.0191	–	–	–
C[C@H](C[C@H]1CC[C@@H](c2ccnc3ccc(F)cc32)CC1)Nc1nc2ncc(Cl)cc2o1 [Example 31, 6-chloro-N-((R)-1-((cis)-4-(6-fluoroquinolin-4-yl)cyclohexyl)propan-2-yl)oxazolo[4,5-b]pyridin-2-amine]	0.0175	0.0091	–	–	–
COc1ccc2nc(N[C@H](C)C[C@H]3CC[C@@H](c4ccnc5ccc(F)cc54)CC3)sc2n1 [Example 22, N-((R)-1-((cis)-4-(6-fluoroquinolin-4-yl)cyclohexyl)propan-2-yl)-5-methoxythiazolo[5,4-b]pyridin-2-amine]	0.016	0.0109	–	–	–
C[C@H](C[C@H]1CC[C@@H](c2ccnc3ccc(F)cc32)CC1)Nc1nc2ncccc2o1 [Example 32, N-((R)-1-((cis)-4-(6-fluoroquinolin-4-yl)cyclohexyl)propan-2-yl)oxazolo[4,5-b]pyridin-2-amine]	0.0114	0.0087	–	–	–
